Laboratory results reported in ChEMBL document CHEMBL1201862, “PubChem BioAssay data set” (2004).
Activity calls are given as the source filed them.

Key:
[1] = biological target: Sphingosine 1-phosphate receptor 1 (Homo sapiens, UniProt P21453); test: Late-stage counterscreen for antagonists of kappa opioid receptor 1 (OPRK1): fluorescence-based cell-based dose response assay to identify antagonists of Sphingosine 1-Phosphate Receptor 1 (S1P1).; assay type: functional
Mu-type opioid receptor [2] = biological target: T1, Mu-type opioid receptor (Homo sapiens, UniProt P35372); test: Late-stage results from the probe development effort to identify antagonists of OPRK1: luminescence-based cell-based dose response OPRM1 counterscreen, Set 2.; assay type: functional
[3] = biological target: Kappa-type opioid receptor (Homo sapiens, UniProt P41145); test: Late-stage fluorescence-based cell-based dose response assay for antagonists of kappa opioid receptor 1 (OPRK1).; assay type: functional
[4] = biological target: T2, Delta-type opioid receptor (Homo sapiens, UniProt P41143); test: Late-stage results from the probe development effort to identify antagonists of OPRK1: fluorescence-based cell-based dose response OPRD1 counterscreen, Set 2.; assay type: functional
Mu-type opioid receptor [5] = biological target: T1, Mu-type opioid receptor; test: Late-stage results from the probe development effort to identify antagonists of OPRK1: luminescence-based cell-based dose response OPRM1 counterscreen.; assay type: functional
[6] = biological target: T2, Delta-type opioid receptor; test: Late-stage results from the probe development effort to identify antagonists of OPRK1: fluorescence-based cell-based dose response OPRD1 counterscreen.; assay type: functional
[7] = biological target: T3, Short transient receptor potential channel 4 (Mus musculus, UniProt Q9QUQ5); test: mouse TRPC4 channel inhibitors, dose response, cell-based, HEK293 TRPC4/mu-opioid, Fluo-4 calcium (AID 434942); assay type: functional;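 also: potency of inhibitors blocking the TRPC4 calcium response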
T3 sequence (Q9QUQ5 whole entry): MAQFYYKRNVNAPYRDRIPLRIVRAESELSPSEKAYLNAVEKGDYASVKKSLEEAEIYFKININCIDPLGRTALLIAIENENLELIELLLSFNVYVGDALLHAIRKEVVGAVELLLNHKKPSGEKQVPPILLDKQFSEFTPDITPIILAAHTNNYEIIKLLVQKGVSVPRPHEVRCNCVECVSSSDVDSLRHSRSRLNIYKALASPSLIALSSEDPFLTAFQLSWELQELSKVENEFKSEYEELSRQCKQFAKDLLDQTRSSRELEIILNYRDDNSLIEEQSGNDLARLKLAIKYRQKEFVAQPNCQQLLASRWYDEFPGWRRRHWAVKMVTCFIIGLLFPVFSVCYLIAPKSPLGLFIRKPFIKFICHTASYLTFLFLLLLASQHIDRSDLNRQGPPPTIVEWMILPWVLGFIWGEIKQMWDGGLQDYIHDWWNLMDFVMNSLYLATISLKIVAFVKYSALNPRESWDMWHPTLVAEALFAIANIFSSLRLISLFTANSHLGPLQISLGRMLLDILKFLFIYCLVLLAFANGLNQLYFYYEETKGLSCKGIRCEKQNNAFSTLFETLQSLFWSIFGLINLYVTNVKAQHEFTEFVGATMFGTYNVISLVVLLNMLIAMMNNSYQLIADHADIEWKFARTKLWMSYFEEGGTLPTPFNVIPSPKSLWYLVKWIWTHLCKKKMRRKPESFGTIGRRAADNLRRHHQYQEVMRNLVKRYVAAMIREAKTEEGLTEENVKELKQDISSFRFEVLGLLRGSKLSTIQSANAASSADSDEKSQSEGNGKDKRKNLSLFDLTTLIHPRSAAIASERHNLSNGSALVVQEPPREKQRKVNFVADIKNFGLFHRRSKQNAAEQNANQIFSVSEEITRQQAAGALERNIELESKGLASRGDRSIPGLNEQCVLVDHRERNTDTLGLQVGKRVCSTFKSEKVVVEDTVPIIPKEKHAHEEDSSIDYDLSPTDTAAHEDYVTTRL

[8] = inhibitors of PGC1a acetylation in cells, dose response, cell-based, cherry-picked samples (AID 720514); assay type: functional;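 also: potency may reflect raised or lowered acetylation signal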
[9] = biological target: Disintegrin and metalloproteinase domain-containing protein 17 (Homo sapiens, UniProt P78536); test: ADAM17 protease inhibitors, dose response, counter-screen for ADAM10 exosite inhibitor project, biochemical, quenched FRET substrate (AID 743253)
[10] = biological target: 1-phosphatidylinositol 4,5-bisphosphate phosphodiesterase gamma-1 (Homo sapiens, UniProt P19174); test: Counterscreen for inhibitors of phospholipase C isozymes (PLC-B3): Fluorescence-based biochemical high throughput dose response assay to identify inhibitors of phospholipase C isozymes (PLC-gamma1).
[11] = biological target: 1-phosphatidylinositol 4,5-bisphosphate phosphodiesterase beta-3 (Homo sapiens, UniProt Q01970); test: Fluorescence-based biochemical high throughput dose response assay to identify inhibitors of phospholipase C isozymes (PLC-B3).
[12] = ADAM10 inhibitors, peptide cleavage, dose response, biochemical, QFRET (AID 743254);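 also: ADAM10 enzyme with the DM2 quenched FRET peptide as substrate; EDANS fluorescence gain as the protease cuts the substrate; inhibitor potency against ADAM10 proteolytic activity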
[13] = biological target: Lysine-specific demethylase 4C (Homo sapiens, UniProt Q9H3R0); test: GASC-1 (JMJD2C) histone demethylase inhibitors, dose response, biochemical, DELFIA europium, cherry-picked samples (AID 488835); assay type: functional
[14] = inhibitors of firefly luciferase expression or activity, dose response, H4 neuroglioma cells, luminescence (AID 1990); assay type: functional, cell-based
[15] = A375 melanoma cell viability loss, dose response, counter-screen for MITF inhibitor project, CellTiter-Glo luminescence, dry powder, set 4 (AID 624364); assay type: functional, cell-based; settings: A-375;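 also: A375 melanoma cells are MITF independent so this is a counter screen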
[16] = growth suppression of beta-catenin-knockout colon cells, dose response, cell-based, HCT116, human colon tumor (AID 1045); assay type: functional;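 also: HCT116 colon tumor cells with beta catenin knocked out; cells exposed to compound for 60 hours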
Protein RecA = biological target: T4, Protein RecA (Mycobacterium tuberculosis, UniProt P9WHJ3); test: Fluorescence Cell-Free Homogeneous Dose Retest to Identify Inhibitors of RecA-Intein Splicing Activity. [Related pubchem assays (depositor defined):AID2097, AID2223, AID489010, AID492950]; assay type: functional
T4 sequence (P9WHJ3 whole entry): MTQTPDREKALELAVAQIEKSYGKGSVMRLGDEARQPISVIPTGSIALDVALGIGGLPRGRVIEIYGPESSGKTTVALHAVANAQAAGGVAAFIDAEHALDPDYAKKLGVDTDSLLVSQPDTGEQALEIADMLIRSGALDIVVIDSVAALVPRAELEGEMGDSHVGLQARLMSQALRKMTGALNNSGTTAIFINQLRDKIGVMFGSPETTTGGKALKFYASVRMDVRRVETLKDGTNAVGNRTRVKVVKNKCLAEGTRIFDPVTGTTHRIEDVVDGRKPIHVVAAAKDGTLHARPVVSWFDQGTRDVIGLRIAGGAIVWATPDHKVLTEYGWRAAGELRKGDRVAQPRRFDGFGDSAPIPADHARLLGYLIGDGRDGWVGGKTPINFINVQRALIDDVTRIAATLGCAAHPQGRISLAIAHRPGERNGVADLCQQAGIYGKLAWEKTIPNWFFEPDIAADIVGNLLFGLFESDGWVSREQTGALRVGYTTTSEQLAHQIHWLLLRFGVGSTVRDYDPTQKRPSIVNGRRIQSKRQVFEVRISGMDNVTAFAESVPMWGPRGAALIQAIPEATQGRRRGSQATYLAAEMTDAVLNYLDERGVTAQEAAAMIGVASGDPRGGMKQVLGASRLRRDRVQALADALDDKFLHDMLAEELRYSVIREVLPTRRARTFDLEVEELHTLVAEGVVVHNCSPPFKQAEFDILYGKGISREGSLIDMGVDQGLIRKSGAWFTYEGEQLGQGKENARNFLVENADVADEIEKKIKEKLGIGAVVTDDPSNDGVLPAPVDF

[17] = growth suppression of PTEN-null colon cells, dose response, cell-based, HCT116 PTEN knockout (AID 1047); assay type: functional;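 also: HCT116 colon tumor cells with PTEN knocked out; cells exposed to compound for 60 hours before readout; potency for loss of cell viability measured by luminescence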
[18] = cytotoxicity in HEK-293T cells, dose response, cytotoxicity control for TCR NF-kB inhibitor project, luminescence, T-cell screen hits (AID 489026); assay type: functional, cell-based;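 also: cells exposed to compound about 14 hours before the viability readout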
[19] = Luminescence Cell-Based Dose Response HTS to Identify Inhibitors of 5'UTR Stem-Loop Driven Prion Protein mRNA Translation in H4 Neuroglioblastoma Cells. [Related pubchem assays: 1827 (Project Summary), 1813 (Primary HTS)]; assay type: functional
[20] = inhibitors of SNCA 5'UTR-driven reporter translation, confirmation, H4 neuroglioma cells, luminescence (AID 1988); assay type: functional, cell-based
[21] = biological target: T5, Replicative DNA helicase DnaB (Mycobacterium tuberculosis, UniProt P9WMR3); test: DnaB intein splicing inhibitors, dose response, biochemical, cell-free fluorescence (AID 449749); assay type: functional
T5 sequence (P9WMR3 whole entry): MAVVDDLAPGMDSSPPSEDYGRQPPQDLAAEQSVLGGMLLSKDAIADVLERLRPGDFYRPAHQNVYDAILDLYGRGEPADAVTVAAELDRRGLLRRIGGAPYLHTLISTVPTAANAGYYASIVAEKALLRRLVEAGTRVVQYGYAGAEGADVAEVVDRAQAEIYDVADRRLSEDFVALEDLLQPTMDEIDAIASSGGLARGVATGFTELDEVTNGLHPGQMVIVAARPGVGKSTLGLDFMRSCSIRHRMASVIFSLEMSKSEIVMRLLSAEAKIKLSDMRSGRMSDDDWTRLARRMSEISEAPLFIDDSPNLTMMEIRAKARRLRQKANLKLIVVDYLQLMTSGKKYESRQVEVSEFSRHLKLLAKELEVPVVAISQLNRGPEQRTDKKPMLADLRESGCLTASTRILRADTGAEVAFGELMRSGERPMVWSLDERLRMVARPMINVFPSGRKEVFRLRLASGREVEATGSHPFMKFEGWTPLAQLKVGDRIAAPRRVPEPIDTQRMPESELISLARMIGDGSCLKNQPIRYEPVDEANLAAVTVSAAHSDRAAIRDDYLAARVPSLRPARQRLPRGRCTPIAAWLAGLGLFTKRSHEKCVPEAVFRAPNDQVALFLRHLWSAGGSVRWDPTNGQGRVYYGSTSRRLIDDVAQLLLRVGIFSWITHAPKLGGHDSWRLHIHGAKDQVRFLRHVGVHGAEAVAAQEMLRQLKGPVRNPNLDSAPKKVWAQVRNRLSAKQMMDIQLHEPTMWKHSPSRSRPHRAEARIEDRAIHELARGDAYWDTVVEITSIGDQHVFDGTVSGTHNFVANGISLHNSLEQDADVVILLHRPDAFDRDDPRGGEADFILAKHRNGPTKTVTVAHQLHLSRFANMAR

INS1 = test: beta cell apoptosis inhibitors, cytokine rescue, dose response, luminescence, retest (AID 449756); assay type: functional, cell-based; settings: Rattus norvegicus;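 also: cell death triggered by IL-1 beta plus TNF-alpha plus IFN-gamma mixture; protective hits raise ATP signal compared with cytokine alone wells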
[22] = A375 melanoma cell cytotoxicity, dose response, counter-screen for MITF inhibitor project, CellTiter-Glo luminescence, dry powder, set 2 (AID 624489); assay type: functional, cell-based; settings: A-375;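 also: actives are compounds lowering A375 viability meaning general cytotoxicity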
[23] = biological target: T6, Microphthalmia-associated transcription factor (Homo sapiens, UniProt O75030); test: TRPM1 promoter luciferase signal decrease, dose response, MITF inhibitor project, cell-based, SK-MEL-5, cherry-picked, set 3 (AID 493073); assay type: functional
T6 sequence (O75030 whole entry): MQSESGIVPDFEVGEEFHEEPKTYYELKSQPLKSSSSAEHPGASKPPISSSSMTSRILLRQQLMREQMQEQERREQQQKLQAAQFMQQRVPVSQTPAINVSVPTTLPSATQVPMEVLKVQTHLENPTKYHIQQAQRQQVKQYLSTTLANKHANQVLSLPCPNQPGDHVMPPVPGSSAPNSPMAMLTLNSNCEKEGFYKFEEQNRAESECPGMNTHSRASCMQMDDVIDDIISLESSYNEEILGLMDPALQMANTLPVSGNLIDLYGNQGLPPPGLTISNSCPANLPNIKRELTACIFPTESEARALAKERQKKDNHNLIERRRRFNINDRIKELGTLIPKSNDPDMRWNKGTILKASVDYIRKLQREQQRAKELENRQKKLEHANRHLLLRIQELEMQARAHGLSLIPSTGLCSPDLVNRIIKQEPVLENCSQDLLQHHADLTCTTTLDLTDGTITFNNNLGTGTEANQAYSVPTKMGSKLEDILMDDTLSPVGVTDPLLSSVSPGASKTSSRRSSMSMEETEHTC

T2 sequence (P41143 whole entry): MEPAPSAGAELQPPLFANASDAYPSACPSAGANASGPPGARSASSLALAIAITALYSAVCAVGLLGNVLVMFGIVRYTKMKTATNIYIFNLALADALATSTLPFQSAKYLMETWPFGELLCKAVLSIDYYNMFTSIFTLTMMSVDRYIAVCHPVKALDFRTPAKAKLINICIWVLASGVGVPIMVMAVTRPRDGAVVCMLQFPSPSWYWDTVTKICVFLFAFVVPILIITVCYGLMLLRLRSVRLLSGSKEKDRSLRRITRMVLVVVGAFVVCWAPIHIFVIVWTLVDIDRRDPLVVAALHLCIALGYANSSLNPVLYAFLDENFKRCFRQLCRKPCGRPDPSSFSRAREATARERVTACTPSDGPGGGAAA
T1 sequence (P35372 whole entry): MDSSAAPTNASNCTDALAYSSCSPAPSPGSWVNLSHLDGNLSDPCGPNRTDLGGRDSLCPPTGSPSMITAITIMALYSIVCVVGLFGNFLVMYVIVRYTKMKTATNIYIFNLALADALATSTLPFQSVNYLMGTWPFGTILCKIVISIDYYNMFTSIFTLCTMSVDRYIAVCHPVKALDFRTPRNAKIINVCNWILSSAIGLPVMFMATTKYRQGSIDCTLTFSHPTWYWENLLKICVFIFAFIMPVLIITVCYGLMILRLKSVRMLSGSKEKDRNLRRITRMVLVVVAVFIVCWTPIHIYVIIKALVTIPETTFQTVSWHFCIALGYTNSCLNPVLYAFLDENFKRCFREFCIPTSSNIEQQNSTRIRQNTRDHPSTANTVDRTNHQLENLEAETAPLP
Sequence of Lysine-specific demethylase 4C (Q9H3R0 whole entry): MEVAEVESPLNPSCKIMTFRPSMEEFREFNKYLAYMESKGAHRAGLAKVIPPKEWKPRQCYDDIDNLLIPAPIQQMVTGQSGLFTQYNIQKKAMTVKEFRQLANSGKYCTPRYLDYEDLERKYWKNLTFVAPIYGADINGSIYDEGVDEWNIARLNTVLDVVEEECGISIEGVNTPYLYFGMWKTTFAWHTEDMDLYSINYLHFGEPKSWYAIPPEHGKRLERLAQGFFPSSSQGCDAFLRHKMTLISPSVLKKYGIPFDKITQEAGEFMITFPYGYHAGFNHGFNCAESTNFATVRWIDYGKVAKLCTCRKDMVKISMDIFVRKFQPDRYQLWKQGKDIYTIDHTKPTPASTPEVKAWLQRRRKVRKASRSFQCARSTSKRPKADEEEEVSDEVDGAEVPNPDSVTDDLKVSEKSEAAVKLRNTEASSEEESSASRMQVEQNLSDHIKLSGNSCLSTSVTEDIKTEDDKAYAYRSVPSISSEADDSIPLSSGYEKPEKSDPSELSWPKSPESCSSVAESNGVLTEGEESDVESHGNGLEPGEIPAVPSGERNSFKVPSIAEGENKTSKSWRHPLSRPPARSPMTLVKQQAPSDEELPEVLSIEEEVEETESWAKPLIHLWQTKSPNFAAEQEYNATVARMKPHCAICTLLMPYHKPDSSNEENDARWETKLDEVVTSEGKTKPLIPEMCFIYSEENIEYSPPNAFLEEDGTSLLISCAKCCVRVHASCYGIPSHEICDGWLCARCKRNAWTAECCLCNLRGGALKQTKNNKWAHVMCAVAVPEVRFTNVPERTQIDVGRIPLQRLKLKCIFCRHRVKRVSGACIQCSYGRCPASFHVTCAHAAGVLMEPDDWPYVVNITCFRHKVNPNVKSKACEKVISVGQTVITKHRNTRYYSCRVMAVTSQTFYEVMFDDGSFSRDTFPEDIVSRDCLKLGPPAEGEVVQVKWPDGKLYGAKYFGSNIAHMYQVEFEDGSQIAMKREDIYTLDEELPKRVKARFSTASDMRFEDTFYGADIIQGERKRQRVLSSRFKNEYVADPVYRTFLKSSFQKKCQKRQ
Sequence of 1-phosphatidylinositol 4,5-bisphosphate phosphodiesterase gamma-1 (P19174 whole entry): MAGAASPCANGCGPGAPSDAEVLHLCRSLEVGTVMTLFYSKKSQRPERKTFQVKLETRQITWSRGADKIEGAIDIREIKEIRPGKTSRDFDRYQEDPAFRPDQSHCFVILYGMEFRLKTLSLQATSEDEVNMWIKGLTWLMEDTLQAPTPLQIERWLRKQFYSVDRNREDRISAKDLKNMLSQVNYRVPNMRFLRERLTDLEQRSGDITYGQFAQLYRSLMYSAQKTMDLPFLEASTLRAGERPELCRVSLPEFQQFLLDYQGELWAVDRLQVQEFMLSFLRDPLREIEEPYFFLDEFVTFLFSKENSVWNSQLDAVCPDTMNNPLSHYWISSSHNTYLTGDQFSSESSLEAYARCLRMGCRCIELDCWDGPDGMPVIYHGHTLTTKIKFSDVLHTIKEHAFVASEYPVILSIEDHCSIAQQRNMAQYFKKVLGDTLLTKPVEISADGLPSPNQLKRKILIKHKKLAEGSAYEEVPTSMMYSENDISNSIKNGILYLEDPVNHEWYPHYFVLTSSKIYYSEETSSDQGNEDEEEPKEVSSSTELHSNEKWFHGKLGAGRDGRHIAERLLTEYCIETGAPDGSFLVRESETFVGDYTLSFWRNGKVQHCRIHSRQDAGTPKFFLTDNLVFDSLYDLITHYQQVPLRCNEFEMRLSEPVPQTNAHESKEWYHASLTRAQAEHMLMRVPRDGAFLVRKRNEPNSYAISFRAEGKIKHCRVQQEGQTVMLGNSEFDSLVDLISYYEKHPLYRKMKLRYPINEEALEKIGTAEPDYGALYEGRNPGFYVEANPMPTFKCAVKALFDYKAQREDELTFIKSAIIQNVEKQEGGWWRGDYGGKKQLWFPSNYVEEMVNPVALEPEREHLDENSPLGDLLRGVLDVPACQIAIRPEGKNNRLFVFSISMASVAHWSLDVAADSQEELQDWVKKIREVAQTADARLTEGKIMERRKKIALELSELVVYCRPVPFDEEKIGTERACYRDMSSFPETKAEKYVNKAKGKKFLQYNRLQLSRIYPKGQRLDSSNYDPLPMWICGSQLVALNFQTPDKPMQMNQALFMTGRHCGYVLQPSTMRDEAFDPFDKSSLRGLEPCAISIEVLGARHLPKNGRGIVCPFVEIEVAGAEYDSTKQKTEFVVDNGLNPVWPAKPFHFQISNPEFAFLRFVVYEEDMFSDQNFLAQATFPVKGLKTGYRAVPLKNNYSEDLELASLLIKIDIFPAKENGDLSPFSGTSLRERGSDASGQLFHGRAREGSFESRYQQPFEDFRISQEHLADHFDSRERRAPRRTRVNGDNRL
Sequence of Disintegrin and metalloproteinase domain-containing protein 17 (P78536 whole entry, the tested form may be a part): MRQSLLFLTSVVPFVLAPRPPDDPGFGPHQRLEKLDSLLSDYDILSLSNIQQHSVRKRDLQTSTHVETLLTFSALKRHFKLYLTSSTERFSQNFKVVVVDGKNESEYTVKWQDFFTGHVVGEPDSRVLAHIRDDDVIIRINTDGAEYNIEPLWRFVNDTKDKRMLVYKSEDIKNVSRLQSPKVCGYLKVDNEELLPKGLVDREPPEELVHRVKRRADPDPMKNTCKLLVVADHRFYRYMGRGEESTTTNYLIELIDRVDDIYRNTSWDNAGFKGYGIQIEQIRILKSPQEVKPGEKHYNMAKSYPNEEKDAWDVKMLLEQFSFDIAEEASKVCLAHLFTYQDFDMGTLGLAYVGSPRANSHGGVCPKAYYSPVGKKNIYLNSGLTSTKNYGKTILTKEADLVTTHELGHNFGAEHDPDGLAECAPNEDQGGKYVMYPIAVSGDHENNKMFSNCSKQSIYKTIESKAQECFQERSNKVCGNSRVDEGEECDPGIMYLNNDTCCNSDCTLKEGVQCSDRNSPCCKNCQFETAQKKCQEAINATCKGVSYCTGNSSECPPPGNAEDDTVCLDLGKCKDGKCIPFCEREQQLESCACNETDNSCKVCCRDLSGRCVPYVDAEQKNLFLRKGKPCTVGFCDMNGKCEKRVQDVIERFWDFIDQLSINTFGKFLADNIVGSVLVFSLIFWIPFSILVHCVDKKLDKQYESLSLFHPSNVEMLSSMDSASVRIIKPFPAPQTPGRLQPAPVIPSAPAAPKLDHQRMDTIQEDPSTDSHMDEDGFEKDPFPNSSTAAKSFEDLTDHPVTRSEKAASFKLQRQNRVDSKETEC
Sequence of Kappa-type opioid receptor (P41145 whole entry): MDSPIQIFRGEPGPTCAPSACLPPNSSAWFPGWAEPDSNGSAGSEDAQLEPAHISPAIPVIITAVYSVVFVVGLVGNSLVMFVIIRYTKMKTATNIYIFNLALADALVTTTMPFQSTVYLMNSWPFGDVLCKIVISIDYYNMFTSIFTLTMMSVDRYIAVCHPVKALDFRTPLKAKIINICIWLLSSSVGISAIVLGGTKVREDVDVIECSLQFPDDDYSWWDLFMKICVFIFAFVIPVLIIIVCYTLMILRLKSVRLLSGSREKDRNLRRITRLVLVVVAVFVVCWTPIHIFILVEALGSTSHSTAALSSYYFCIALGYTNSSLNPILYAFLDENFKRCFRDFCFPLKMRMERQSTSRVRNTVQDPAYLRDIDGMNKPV
Sequence of Sphingosine 1-phosphate receptor 1 (P21453 whole entry): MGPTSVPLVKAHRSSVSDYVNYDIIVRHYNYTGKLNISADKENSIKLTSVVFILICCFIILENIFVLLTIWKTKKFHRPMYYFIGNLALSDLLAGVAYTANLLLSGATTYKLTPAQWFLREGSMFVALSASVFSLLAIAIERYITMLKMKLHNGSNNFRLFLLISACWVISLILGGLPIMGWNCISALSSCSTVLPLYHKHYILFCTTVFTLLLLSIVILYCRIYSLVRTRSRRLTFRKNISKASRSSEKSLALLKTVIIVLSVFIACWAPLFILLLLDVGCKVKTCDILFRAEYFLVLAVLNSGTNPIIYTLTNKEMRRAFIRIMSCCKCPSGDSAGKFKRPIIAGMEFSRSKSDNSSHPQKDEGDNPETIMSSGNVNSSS

For COc1cc([N+](=O)[O-])c(OC)cc1SCc1nnc(S)n1-c1ccc(C)cc1, the IC50 [1] was > 50 µM (inactive), the IC50 (Mu-type opioid receptor [2]) was > 50 µM (inactive) and the IC50 [3] was 2.2 µM (active). For the same compound, the IC50 [4] was > 50 µM (inactive).
In the case of COC(=O)c1cc(I)cnc1N1CCC(NC2CCCCC2)CC1, the IC50 (Mu-type opioid receptor [5]) is reported as 0.479 µM (active) and the IC50 [6] is reported as 2.5 µM (active).
For CCOC(=O)C1(Cc2cccc(F)c2)CCN(Cc2c(C)nn(CC)c2C)CC1, the EC50 [7] was 1.06 µM (active) and the AC50 [8] was 28.8 µM (active).
In the case of CN1C(=O)c2cc(NC(=O)Nc3ccccc3F)ccc2OC[C@H]2O[C@@H](CC(=O)NCc3ccc(-c4ccccc4)cc3)CC[C@@H]21, the IC50 [9] is reported as > 69.5 µM (inactive), the IC50 [10] is reported as > 122 µM (inactive) and the IC50 [11] is reported as > 122 µM (inactive). The IC50 [12] was > 69.5 µM (inactive).
With CC(=O)N(C)C1=C(N2CCOCC2)C(=O)c2ccccc2C1=O the AC50 [13] was 31.2 µM (active), the EC50 [14] was 10.8 µM (active) and the AC50 [15] was 32.1 µM (active). The EC50 [16] was 1.81 µM (active), the EC50 (Protein RecA) was 38.4 µM (active) and the EC50 [17] was 1.91 µM (active). For the same compound, the IC50 [18] was 4.03 µM (active), the EC50 [19] was 11.7 µM (active) and the EC50 [20] was 7.74 µM (active). For the same compound, the AC50 [21] was 51.3 µM (active), the AC50 (INS1) was 1.67 µM (active) and the AC50 [22] was 13.9 µM (active). For the same compound, the AC50 [23] was 3.5 µM (active).
